As a reminder, the IC50 is the concentration needed to halve the response being measured. A higher IC50 goes with lower potency. The term Ki denotes the equilibrium dissociation constant of an inhibitor or competing ligand from its target. The low end stands for tighter binding, the high end for weaker binding.

Experiment [1] is described as follows: Concentration required for inhibition of 5-hydroxytryptamine 1 receptor using [3H]-5-HT as the radioligand.
Experiment [2] is described as follows: Concentration required for inhibition of Dopamine receptor D2 using [3H]spiperone as the radioligand.
Experiment [3] is described as follows: Concentration required for inhibition of Dopamine receptor D1 using [3H]SCH-23,390 as the radioligand.
For experiment [4], the target named is T1, Serotonin 3 (5-HT3) receptor (Rattus norvegicus, UniProt P35563+Q9JJ16).
T1 sequence (P35563 whole entry): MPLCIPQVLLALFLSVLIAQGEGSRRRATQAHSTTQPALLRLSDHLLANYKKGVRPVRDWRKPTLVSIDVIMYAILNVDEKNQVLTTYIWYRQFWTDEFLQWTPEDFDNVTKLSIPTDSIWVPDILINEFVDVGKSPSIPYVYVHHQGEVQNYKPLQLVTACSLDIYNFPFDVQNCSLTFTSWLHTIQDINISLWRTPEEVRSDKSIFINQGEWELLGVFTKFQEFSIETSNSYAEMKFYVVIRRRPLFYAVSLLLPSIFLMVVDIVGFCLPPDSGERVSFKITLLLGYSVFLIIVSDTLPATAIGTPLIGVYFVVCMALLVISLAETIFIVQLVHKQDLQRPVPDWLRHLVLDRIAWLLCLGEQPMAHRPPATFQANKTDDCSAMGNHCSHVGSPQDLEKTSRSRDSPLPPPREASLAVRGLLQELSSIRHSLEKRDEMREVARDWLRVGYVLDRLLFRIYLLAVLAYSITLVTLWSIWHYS
T1 sequence (Q9JJ16 whole entry): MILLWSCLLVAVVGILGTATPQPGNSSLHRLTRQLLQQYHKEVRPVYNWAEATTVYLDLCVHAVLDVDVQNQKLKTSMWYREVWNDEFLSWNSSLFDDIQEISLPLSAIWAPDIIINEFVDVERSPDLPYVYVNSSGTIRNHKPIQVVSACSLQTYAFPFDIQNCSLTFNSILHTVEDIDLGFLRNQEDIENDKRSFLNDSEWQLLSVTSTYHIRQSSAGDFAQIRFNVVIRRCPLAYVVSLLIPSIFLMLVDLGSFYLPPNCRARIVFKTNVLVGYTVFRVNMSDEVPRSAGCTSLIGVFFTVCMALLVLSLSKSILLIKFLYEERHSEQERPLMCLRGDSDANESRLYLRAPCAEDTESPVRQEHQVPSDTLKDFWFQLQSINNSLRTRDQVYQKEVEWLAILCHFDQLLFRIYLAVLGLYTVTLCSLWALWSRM
Put plainly: Binding affinity towards 5-hydroxytryptamine 3 receptor using [3H]GR-65630 as the radioligand in male rat cortical tissue. In kind it is protein-complex assay.

Experiment [5] can be described thus: Concentration required for inhibition of 5-hydroxytryptamine 3 receptor using [3H]GR-65630 as the radioligand.
The test system of experiment [6] is Oryctolagus cuniculus. Put plainly: Effective dose required for restoring normal motility after i.v. administration. In kind it is functional, Canis lupus familiaris. The note with it: iv.
Experiment [7] relates to Oryctolagus cuniculus. Put plainly: Effective concentration required for restoring normal motility after i.v. administration. In kind it is functional, organism-based, Canis lupus familiaris.
Experiment [8] relates to Canis familiaris. Put plainly: Tested for inhibition of cisplatin-induced emesis in dog after i.g. administration. Particulars: Canis lupus familiaris, po; read-out: ID50 (the source's name).
In experiment [9] the target is 5-hydroxytryptamine receptor 4 (Rattus norvegicus) (UniProt Q62758). Put plainly: Effective concentration required towards 5-hydroxytryptamine 4 receptor in rat tunica muscularis mucosae.
For experiment [10], the target named is 5-hydroxytryptamine receptor 4 (Cavia porcellus). Put plainly: Binding affinity for 5-hydroxytryptamine 4 receptor in guinea pig was determined by guinea pig striatum binding assay.

Some results are limits rather than exact numbers.

Sequence of 5-hydroxytryptamine receptor 4 (Rattus norvegicus) (Q62758 whole entry, looked up): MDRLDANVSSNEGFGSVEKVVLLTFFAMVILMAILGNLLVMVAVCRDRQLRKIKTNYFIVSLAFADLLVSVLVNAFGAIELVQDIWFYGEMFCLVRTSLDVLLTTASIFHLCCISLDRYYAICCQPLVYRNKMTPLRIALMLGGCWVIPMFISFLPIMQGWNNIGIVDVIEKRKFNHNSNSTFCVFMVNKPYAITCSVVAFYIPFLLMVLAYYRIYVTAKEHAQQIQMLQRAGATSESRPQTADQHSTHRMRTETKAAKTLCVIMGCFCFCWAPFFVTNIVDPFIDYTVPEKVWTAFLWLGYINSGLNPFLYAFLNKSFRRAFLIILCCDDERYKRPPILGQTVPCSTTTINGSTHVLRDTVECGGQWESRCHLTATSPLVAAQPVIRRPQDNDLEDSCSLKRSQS

On to `COc1cc(N)c(Cl)cc1C(=O)NCC1C2CC3CC1CN(C3)C2` (stereo in doubt; 9c), for which the IC50 was more than 10000 nM in experiment [1], more than 10000 nM in experiment [2], more than 10000 nM in experiment [3] and 3.5 nM in experiment [5]. The molecule also registered a Ki in [4] of 25.4 nM. For the same molecule, the ED50 in [6] amounted to 0.62 mg/kg; in [8] it was 0.3 mg/kg. This molecule also showed an EC50 in experiment [7] of 0.03 mg/kg.

Regarding `COc1cc(N)c(Cl)cc1C(=O)NC1C2CC3CC1CN(C3)C2` (stereo in doubt; 9a), the concentration for half-maximal inhibition (IC50) was more than 10000 nM in [1], more than 10000 nM in [2], more than 10000 nM in experiment [3] and 672 nM in [5]. Also, the Ki in [4] is 336 nM; in [10], more than 500 nM. The EC50 in experiment [9] came out at 538 nM.

On to `COc1cc(N)c(Cl)cc1C(=O)NC1C2CC3CC1CN(C3)C2` (stereo in doubt; 9b), for which the Ki came to 9 nM in experiment [4] and 57 nM in experiment [10]. In experiment [5], this molecule returned an IC50 of 18 nM. This molecule also showed an EC50 in [9] of 262 nM.

These data come from ChEMBL document CHEMBL1138016, “Azaadamantane benzamide 5-HT4 agonists: gastrointestinal prokinetic SC-54750” (Bioorg Med Chem Lett, 2004).
